Reference: patent US20110045102A1, “Cancer chemotherapy compositions comprising PI3K pathway modulators and triptolide” (priority 2005, published 2011)

How the values were obtained:
caspase-3 = assay: Western blot for active caspase-3 (Example II); format: cell-based, human; conditions: carboplatin alone
caspase 3 = assay: Western blot for active caspase 3 (Example III); format: cell-based, human; conditions: LY294002 10 μM, carboplatin 50 μg/ml
Experimental: The OCC1-SEAP-12 cells were grown to 80% confluence. Cultures were incubated in DMEM plus 0.1% bovine serum albumin (BSA) and 0.1% BCS to which either vehicle control, carboplatin (0-50 μg/ml), LY294002 (0-20 μM) or combinations of these treatments. Following 24, 48 or 72 hr cells were lysed with sample buffer (62.5 mM Tris-HCl, pH 6.8, 2% SDS, 5% glycerol, […], 0.5% β-mercaptoethanol). Total cell lysates were subjected to SDS polyacrylamide gel electrophoresis 9 page) and transferred to PVDF membranes (Millipore, Bedford, Mass.). Membranes were immunoblotted with antibodies to both the phosphorylated and non-phosphorylated forms of […] (Cell Signaling Technology, Beverly, Mass.), or alternatively, with antibodies to cleaved and full length caspase-3 (Cell Signaling Technology, Beverly, Mass.).

OCC1-SEAP-12 cells [1] = assay: DNA laddering on agarose gel (Example III); format: cell-based, human; conditions: 48 hr and 72 hr
Experimental: (§1) Following 48 hr to 72 hr treatment incubations, cells were suspended into culture medium and pelleted in tubes. DNA was isolated from collected cells using a Puregene™ DNA isolation kit (Gentra Systems, Minneapolis, Minn.). The quantity and purity of nucleic acid preparations were estimated by measuring the optical density of each sample A260/A280). DNA preparations (10 μg/well) were loaded onto 1.2% agarose gels and visualized with ethidium bromide stain.

OCC1-SEAP-12 cells [2] = assay: Growth assay, [3H] thymidine incorporation (Example III); format: cell-based, human; conditions: 18h treatment
Experimental: Cell proliferation was analyzed by determining the amount of [^3H] thymidine incorporation Into newly synthesized DNA. The OCC1-SEAP-12 cells were plated in 24 well plates in Ham's F-12 medium plus 10% BCS and allowed to reach 50 to 70% confluence. Following a 48 hr serum starvation, the culture medium was changed to Dulbecco's Modified Eagle Medium (DMEM) plus 0.1% BSA and 0.1% BCS containing either vehicle control or carboplatin (0-100 μg/ml) alone, or in combination with LY294002 (0-20 μM). Treatments were removed after 18h and cells were incubated for 4 hr in medium containing 5 μCi/ml of [^3H] thymidine. Medium was removed and cells were disrupted by sonication in phosphate buffered saline (PBS). An aliquot of the sonicated solution of PBS was loaded onto a DEAE filtration plate (Millipore, Bedford, Mass.), and individual filters with bound DNA were collected for scintillation counting. Data was normalized to total DNA per well and was determined by a SYBR green fluorescent assay (Nilsson E E, Westfall S D, McDonald C, Ligon T, Sadler-Riggleman I, Skinner M K. An in vivo mouse reporter gene (human secreted alkaline phosphatase) model to monitor ovarian tumor growth and response to therapeutics. Cancer Chemother Pharmacol 2002; 49(2):93-100).

[3] = system: OCC1-SEAP ovarian cancer cells; assay: Cell survival by DNA content of culture wells (Example II); format: cell-based, human; conditions: 48 hours; triptolide 100 ng/ml, carboplatin 50 (FIG. 8 legend: mg/ml)
Experimental: Cell survival was assessed as the number of cells remaining in culture, following exposure to treatments. The DNA content of individual culture wells was used as an indication of cell number. Cells plated in 24 well culture plates were allowed to approach confluence (80%) in Ham's F-12 medium plus 10% BCS. Cultures were then incubated in DMEM, plus 0.1% BSA and 0.1% BCS, in the presence of vehicle control, carboplatin (0-100 μg/ml), Triptolide (100 ng/ml) or a combination of these for 24 to 96 hrs. Media aliquots were taken when appropriate for SEAP analysis. The DNA was measured fluorometrically, as described above, in Example I. Briefly, the fluorescence of an aliquot of sonicated cell suspension, into which SYBR Green I fluorescent dye (Molecular Probes, Eugene, Oreg.), had been incorporated was measured.

[4] = system: OCC1-SEAP intraperitoneal tumors; assay: Nude mouse intraperitoneal OCC1-SEAP tumor model, plasma SEAP (Example I); format: in vivo, athymic nude mice; conditions: established tumors; carboplatin 60 mg/kg three times over 4 days
Experimental: Athymic nude mice (Nu/Nu; Charles River Laboratories, Wilmington, Mass.) weighing about 25 g were used for in vivo studies.
Three mice were injected intraperitoneally with 1×10^7 OCC1-SEAP-12 cells. The experimental treatments began after 1 week. […] Alternatively, four mice with well-developed tumors (2-4 weeks after injection) were treated with a high dose of carboplatin (60 mg/kg) three times over a period of 4 days. After death all visible intraperitoneal tumors were dissected out and weighed.
Blood samples were collected from saphenous vein lancings three times per week into heparinized capillary tubes. The capillary tubes were centrifuged and the plasma samples were frozen at −20° C. until the time of SEAP assay. Blood samples were taken for SEAP assay from the mice within 24 hours of death 2-3 weeks after intraperitoneal injection of OCC1-SEAP cells.
Blood plasma and cell culture medium samples were assayed for SEAP activity using the Great EscAPe SEAP fluorescence detection kit (Clontech Laboratories, Palo Alto, Calif.). SEAP is secreted at a constant rate by transfected tumor cells and distributed throughout the body or into the culture medium. SEAP is heat stable, so any endogenous alkaline phosphatase activity in blood plasma is destroyed by heat treatment of the samples (65° C. for 30 minutes) during the assay. The SEAP enzyme in each sample acts on the substrate 4-methylumbelliferyl phosphate during a 1 hour incubation at room temperature to produce a fluorescent product with excitation and emission peaks at 360 and 449 nm, respectively. A fluorimeter is then used to measure SEAP activity. The intra-assay and inter-assay coefficients of variation were 2.5% and 18.8%, respectively. Blood plasma samples were diluted 1:100 prior to the assay to bring values within the linear range of the standard curve.

Akt = assay: Western blot for Akt phosphorylation (Example III); format: cell-based, human; conditions: 6 hr and 24 hr; LY294002 10 (FIG. 18 legend: mM), carboplatin 50
Experimental: The OCC1-SEAP-12 cells were grown to 80% confluence. […] […] Total cell lysates were subjected to SDS polyacrylamide gel electrophoresis 9 page) and transferred to PVDF membranes (Millipore, Bedford, Mass.). Membranes were immunoblotted with antibodies to both the phosphorylated and non-phosphorylated forms of […] (Cell Signaling Technology, Beverly, Mass.), or alternatively, with antibodies to cleaved and full length caspase-3 (Cell Signaling Technology, Beverly, Mass.).

OCC1-SEAP cell cultures = assay: DNA fragmentation (laddering) on agarose gel (Example II); format: cell-based, human; conditions: 48 hr; TPL 100 ng/ml, carboplatin 50 μg/ml
Experimental: as §1, with “h” for “hr”, “absorbance” for “optical density”, “(A260/A280).” for “A260/A280).”

SMILES: N.N.O=C([O-])C1(C(=O)[O-])CCC1.[Pt+2] [carboplatin]
- time until caspase-3 is activated post-treatment (caspase-3): 48 h
- time at which active 17 kDa caspase 3 appears (caspase 3): 48 h
- DNA laddering (OCC1-SEAP-12 cells [1]): observed
- block of basal DNA synthesis (OCC1-SEAP-12 cells [2]; 20 μg/ml carboplatin): 51%
- block of basal DNA synthesis (OCC1-SEAP-12 cells [2]; 50 μg/ml carboplatin): 59.5%
- decrease in cell survival (μg DNA/ml) compared to control cultures [3]: 30%
- tumor burden by plasma SEAP levels [4]: transiently decreased the tumor burden
- Akt phosphorylation (Akt): had not effect
- DNA laddering (OCC1-SEAP cell cultures): evident
